Results taken from the supplement of paper PMC8671470.

Key:
Conditions in all cases: 72 h
HEL [1] = tested on: HEL
Outline: (§1)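 Fifteen myeloid leukaemia cell lines were seeded in RPMI 1640 at densities titrated to the linear growth range and placed in 384-well plates with acoustically pre-printed compounds at five tenfold doses from 1 to 10,000 nM, in duplicate. After 72 h at 37 °C with 5% CO2, luminescent ATP viability was normalised to vehicle and to a positive control at 10 µM, and curves were fitted with a four-parameter log-logistic model. The IC50 was obtained from these fits.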

KCL-22 [2] = tested on: KCL-22
Outline: as §1

HL-60 [3] = tested on: HL-60
Outline: as §1

ML-2 [4] = tested on: ML-2
Outline: as §1

KG-1 [5] = tested on: KG-1
Outline: as §1

MOLM-13 [6] = tested on: MOLM-13
Outline: as §1

MV4-11 [7] = tested on: MV4-11
Outline: as §1

Mono-Mac-6 [8] = tested on: Mono-Mac-6
Outline: as §1

KU-812 [9] = tested on: KU-812
Outline: as §1

LAMA-84 [10] = tested on: LAMA-84
Outline: as §1

K-562 [11] = tested on: K-562
Outline: as §1

THP-1 [12] = tested on: THP-1
Outline: as §1

NOMO-1 [13] = tested on: NOMO-1
Outline: as §1

BV-173 [14] = tested on: BV-173
Outline: as §1

SHI-1 [15] = tested on: SHI-1
Outline: as §1

HEL [16] = test: cell viability (% survival relative to DMSO control, bortezomib = 0%); higher = less cytotoxic
Outline: (§2)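 Fifteen myeloid leukaemia cell lines (10 AML, 5 CML) were seeded at a density titrated to the linear growth range into 384-well plates pre-printed with compounds at 1, 10, 100, 1000 or 10000 nM in duplicate. Plates were incubated for 72 h at 37 °C with 5% CO2. Viability was then read by CellTiter-Glo luminescence. Each value is percent survival averaged over the duplicates, with vehicle set to 100% and a 10 µM positive control to 0%.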

KCL-22 [17] = test: as above
Outline: as §2

HL-60 [18] = test: as above
Outline: as §2

ML-2 [19] = test: as above
Outline: as §2

KG-1 [20] = test: as above
Outline: as §2

MOLM-13 [21] = test: as above
Outline: as §2

MV4-11 [22] = test: as above
Outline: as §2

Mono-Mac-6 [23] = test: as above
Outline: as §2

KU-812 [24] = test: as above
Outline: as §2

LAMA-84 [25] = test: as above
Outline: as §2

K-562 [26] = test: as above
Outline: as §2

THP-1 [27] = test: as above
Outline: as §2

NOMO-1 [28] = test: as above
Outline: as §2

BV-173 [29] = test: as above
Outline: as §2

SHI-1 [30] = test: as above
Outline: as §2

CC[C@H](C)[C@H](N)C(=O)N1CCSC1 [P32/98]
Conditions | IC50 (cell viability) [µM]
BV-173 [14] | > 10
HEL [1] | > 10
HL-60 [3] | > 10
K-562 [11] | > 10
KCL-22 [2] | > 10
KG-1 [5] | > 10
KU-812 [9] | > 10
LAMA-84 [10] | > 10
ML-2 [4] | > 10
MOLM-13 [6] | > 10
MV4-11 [7] | > 10
Mono-Mac-6 [8] | > 10
NOMO-1 [13] | > 10
SHI-1 [15] | > 10
THP-1 [12] | > 10

cell viability [%]
Conditions | 1 nM | 10 nM | 100 nM | 1000 nM | 10000 nM
BV-173 [29] | 96.2 | 95.3 | 96.7 | 115 | 84
HEL [16] | 105 | 98.7 | 109 | 107 | 105
HL-60 [18] | 88.1 | 103 | 108 | 98.6 | 76.7
K-562 [26] | 101 | 98.6 | 96.6 | 101 | 100
KCL-22 [17] | 96.8 | 97.3 | 107 | 98.2 | 100
KG-1 [20] | 97.9 | 110 | 108 | 112 | 137
KU-812 [24] | 97.7 | 92.3 | 92.6 | 103 | 97.9
LAMA-84 [25] | 96.6 | 102 | 102 | 106 | 103
ML-2 [19] | 102 | 102 | 102 | 103 | 91.2
MOLM-13 [21] | 84.3 | 87.8 | 99.7 | 103 | 97.4
MV4-11 [22] | 98.7 | 110 | 106 | 96.9 | 108
Mono-Mac-6 [23] | 93.6 | 99 | 109 | 103 | 101
NOMO-1 [28] | 102 | 102 | 99.6 | 102 | 92.9
SHI-1 [30] | 111 | 99.9 | 103 | 97.1 | 88.5
THP-1 [27] | 96.8 | 105 | 112 | 104 | 106

O=C(NCCN1CCC(n2c(O)nc3ccccc32)CC1)c1cc2cc(F)ccc2[nH]1 [FIPI]
Conditions | IC50 (cell viability) [µM]
BV-173 [14] | > 10
HEL [1] | > 10
HL-60 [3] | > 10
K-562 [11] | 6.19
KCL-22 [2] | > 10
KG-1 [5] | > 10
KU-812 [9] | > 10
LAMA-84 [10] | > 10
ML-2 [4] | > 10
MOLM-13 [6] | > 10
MV4-11 [7] | > 10
Mono-Mac-6 [8] | 8.61
NOMO-1 [13] | > 10
SHI-1 [15] | > 10
THP-1 [12] | > 10

cell viability [%]
Conditions | 1 nM | 10 nM | 100 nM | 1000 nM | 10000 nM
BV-173 [29] | 96.9 | 101 | 99.9 | 99.3 | 58.9
HEL [16] | 99.1 | 99.8 | 101 | 104 | 82.5
HL-60 [18] | 105 | 103 | 112 | 97.7 | 92.2
K-562 [26] | 99.1 | 106 | 108 | 101 | 27.3
KCL-22 [17] | 100 | 98 | 91.1 | 94.9 | 67.7
KG-1 [20] | 101 | 92.4 | 103 | 91.2 | 65.1
KU-812 [24] | 104 | 92.9 | 105 | 106 | 66.2
LAMA-84 [25] | 99.3 | 103 | 103 | 98.6 | 70.5
ML-2 [19] | 96.3 | 98.6 | 107 | 110 | 75.8
MOLM-13 [21] | 79.6 | 104 | 98.9 | 95.4 | 69
MV4-11 [22] | 91.3 | 88.1 | 100 | 94.6 | 53.2
Mono-Mac-6 [23] | 104 | 107 | 106 | 70.6 | 64.5
NOMO-1 [28] | 96.7 | 95.4 | 110 | 102 | 95.3
SHI-1 [30] | 103 | 104 | 97.5 | 97.9 | 85
THP-1 [27] | 95.8 | 93.9 | 101 | 105 | 96.3

CCc1oc2ccccc2c1C(=O)c1cc(Br)c(O)c(Br)c1 [Benzbromarone]
Conditions | IC50 (cell viability) [µM]
BV-173 [14] | > 10
HEL [1] | > 10
HL-60 [3] | > 10
K-562 [11] | > 10
KCL-22 [2] | > 10
KG-1 [5] | > 10
KU-812 [9] | > 10
LAMA-84 [10] | > 10
ML-2 [4] | > 10
MOLM-13 [6] | > 10
MV4-11 [7] | > 10
Mono-Mac-6 [8] | > 10
NOMO-1 [13] | > 10
SHI-1 [15] | > 10
THP-1 [12] | > 10

cell viability [%]
Conditions | 1 nM | 10 nM | 100 nM | 1000 nM | 10000 nM
BV-173 [29] | 106 | 94.1 | 117 | 95.9 | 127
HEL [16] | 92.3 | 101 | 101 | 89.8 | 122
HL-60 [18] | 88.5 | 88.1 | 136 | 94.1 | 104
K-562 [26] | 117 | 94.6 | 103 | 97.7 | 103
KCL-22 [17] | 108 | 90.7 | 91.5 | 90.2 | 124
KG-1 [20] | 95.7 | 97.7 | 102 | 94.1 | 102
KU-812 [24] | 100 | 95.2 | 97.9 | 87.4 | 104
LAMA-84 [25] | 103 | 98.7 | 96.3 | 96.1 | 107
ML-2 [19] | 99.6 | 96.6 | 109 | 93.4 | 109
MOLM-13 [21] | 101 | 101 | 91.3 | 90.8 | 136
MV4-11 [22] | 107 | 100 | 97 | 91.2 | 118
Mono-Mac-6 [23] | 102 | 95.3 | 106 | 102 | 126
NOMO-1 [28] | 95.1 | 103 | 94.8 | 93.9 | 109
SHI-1 [30] | 104 | 86 | 104 | 103 | 117
THP-1 [27] | 105 | 95.7 | 112 | 101 | 86.3
